In EP0545103A1, “Insecticidal, acaricidal and molluscicidal 1-(substituted) thioalkylpyrroles” (priority 1991, dated 1993):

Legend:
Type in all cases: in vivo
Set-up in all cases: key: 0: no effect; 10-25% kill; 26-35% kill; 36-45% kill; 46-55% kill; 56-65% kill; 66-75% kill; 76-85% kill; 86-99% kill; 9: 100% kill
[1] = tested on: Heliothis virescens, 3rd instar tobacco budworm; assay: Tobacco budworm 3rd instar test, dipped cotton cotyledons; details: mortality rating after 3 days
Summary of the method: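 Rating-scale scores of mortality and reduced feeding, taken 3 days after single third-instar larvae were caged on dried cotton cotyledon quarters. Cotyledons were pre-dipped in test solutions diluted with water from a 10,000 ppm stock in 35% acetone.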

[2] = tested on: Empoasca abrupta, adult, western potato leafhopper; assay: Western potato leafhopper contact test, dipped limabean leaf
Summary of the method: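 Sieva limabean leaf dipped 3 s in compound solution (diluted in water from 10,000 ppm stock in 35% acetone), dried, and infested with about 10 adult leafhoppers on moist filter paper. Mortality counted after 2 days and scored on a rating scale.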

[3] = tested on: Spodoptera eridania, 3rd instar larvae, southern armyworm; assay: Southern armyworm 7-day residual test; details: R designates Residual: 7-day residual foliage, concentration not given; for ARMYWORM Day 3 R: rating at 3 days; for ARMYWORM Day 5 R: rating at 5 days
Summary of the method: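 Third-instar southern armyworm larvae were exposed to lima bean foliage that had been treated, then held 7 days under greenhouse lamps simulating bright sun for 14 h per day. Treatment solutions were diluted in water from a 10,000 ppm stock in 35% acetone. Results are scale ratings.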

[4] = tested on: Spodoptera eridania, 3rd instar larvae, southern armyworm; assay: Southern armyworm 3rd instar test, dipped limabean leaf; details: for ARMYWORM Day 3: rating at 3 days; for ARMYWORM Day 5: rating at 5 days
Summary of the method: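 Ten 3rd instar larvae fed on limabean leaves that had been dipped for 3 s in test solution and dried. Test solutions were diluted in water from a 10,000 ppm stock in 35% acetone/water. Ratings at days 3 and 5 covered death, feeding reduction and abnormal molting.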

[5] = 10 ppm, contact, rating scale 0-9
[6] = 100 ppm, contact, rating scale 0-9
[7] = 10 ppm, mortality rating after 2 days
[8] = 100 ppm, mortality rating after 2 days

Structure (SMILES) | TOBACCO BUDWORM 3rd Instar ([1]; 10 ppm) | LEAFHOPPER Contact [2, 5] | LEAFHOPPER Contact [2, 6] | ARMYWORM Day 3 R [3] | ARMYWORM Day 5 R [3] | TOBACCO BUDWORM 3rd Instar ([1]; 100 ppm) | TOBACCO BUDWORM 3rd Instar ([1]; 1000 ppm) | LEAFHOPPER Contact [2, 7] | LEAFHOPPER Contact [2, 8] | ARMYWORM Day 3 ([4]; 10 ppm) | ARMYWORM Day 5 ([4]; 10 ppm) | ARMYWORM Day 3 ([4]; 100 ppm) | ARMYWORM Day 5 ([4]; 100 ppm) | ARMYWORM Day 3 ([4]; 1000 ppm) | ARMYWORM Day 5 ([4]; 1000 ppm)
CCOC(=S)SCn1c(Cl)c(Cl)c(C#N)c1-c1ccc(Cl)c(Cl)c1 [Example 28] | 0 | 0 | 9 (100% kill) | 9 (100% kill) | 9 (100% kill) |  |  |  |  |  |  |  |  |  | 
CN(C)C(=S)SCn1c(-c2ccc(Cl)cc2)c(C#N)c(Br)c1C(F)(F)F [Example 24] | 0 |  |  | 9 (100% kill) | 9 (100% kill) | 9 (100% kill) | 9 (100% kill) | 0 | 9 (100% kill) | 9 (100% kill) | 9 (100% kill) | 9 (100% kill) | 9 (100% kill) | 9 (100% kill) | 9 (100% kill)
N=C(N)SCn1c(-c2ccc(Cl)c(Cl)c2)c(Br)c(C(F)(F)F)c1C(F)(F)F [Example 18] | 0 |  |  | 9 (100% kill) | 9 (100% kill) | 9 (100% kill) | 9 (100% kill) |  |  | 0 | 0 | 9 (100% kill) | 9 (100% kill) | 9 (100% kill) | 9 (100% kill)
FC(F)(F)c1c(Br)c(-c2ccc(Cl)c(Cl)c2)n(CSC2=NCCCN2)c1C(F)(F)F [Example 17] |  |  | 5 (56-65% kill) | 9 (100% kill) | 9 (100% kill) |  |  |  |  | 9 (100% kill) | 9 (100% kill) | 9 (100% kill) | 9 (100% kill) | 9 (100% kill) | 9 (100% kill)
CN(C)C(=S)SCn1c(-c2ccc(Cl)cc2)c(C#N)c(Cl)c1C(F)(F)F [Example 21] | 9 (100% kill) |  |  | 9 (100% kill) | 9 (100% kill) | 9 (100% kill) | 9 (100% kill) |  |  | 9 (100% kill) | 9 (100% kill) | 9 (100% kill) | 9 (100% kill) | 9 (100% kill) | 9 (100% kill)
CN(C)C(=S)SCn1c(Cl)c(C#N)c(Cl)c1-c1ccc(Cl)c(Cl)c1 [Example 36] | 0 |  | 6 (66-75% kill) | 9 (100% kill) | 9 (100% kill) | 9 (100% kill) | 9 (100% kill) |  |  |  |  |  |  |  | 
N#Cc1c(Br)c(C(F)(F)F)n(CSC2=NCCN2)c1-c1ccc(Cl)cc1 [Example 7] |  |  |  | 9 (100% kill) | 9 (100% kill) |  |  |  |  | 9 (100% kill) | 9 (100% kill) | 9 (100% kill) | 9 (100% kill) | 9 (100% kill) | 9 (100% kill)
CCOC(=S)SCn1c(-c2ccc(Cl)c(Cl)c2)c(Br)c(C(F)(F)F)c1C(F)(F)F [Example 35] |  | 9 (100% kill) | 9 (100% kill) | 9 (100% kill) | 9 (100% kill) |  |  |  |  | 9 (100% kill) | 9 (100% kill) | 9 (100% kill) | 9 (100% kill) | 9 (100% kill) | 9 (100% kill)
CN=C(NC)SCn1c(-c2ccc(Cl)cc2)c(C#N)c(Cl)c1C(F)(F)F [Example 2] | 9 (100% kill) |  |  | 9 (100% kill) | 9 (100% kill) | 9 (100% kill) | 9 (100% kill) |  |  | 9 (100% kill) | 9 (100% kill) | 9 (100% kill) | 9 (100% kill) | 9 (100% kill) | 9 (100% kill)
CN=C(NC)SCn1c(Cl)c(C#N)c(Cl)c1-c1ccc(Cl)c(Cl)c1 [Example 19] | 0 | 0 | 9 (100% kill) | 9 (100% kill) | 9 (100% kill) | 9 (100% kill) | 9 (100% kill) |  |  | 0 | 0 | 9 (100% kill) | 9 (100% kill) | 9 (100% kill) | 9 (100% kill)
CCOC(=S)SCn1c(-c2ccc(Cl)cc2)c(C#N)c(Br)c1C(F)(F)F [Example 29] |  | 9 (100% kill) | 9 (100% kill) | 9 (100% kill) | 9 (100% kill) |  |  |  |  | 9 (100% kill) | 9 (100% kill) | 9 (100% kill) | 9 (100% kill) | 9 (100% kill) | 9 (100% kill)
CC1(C)CN=C(SCn2c(-c3ccc(Cl)cc3)c(C#N)c(Br)c2C(F)(F)F)NC1 [Example 10] | 0 | 0 | 7 (76-85% kill) | 9 (100% kill) | 9 (100% kill) |  |  |  |  | 0 | 0 | 9 (100% kill) | 9 (100% kill) | 9 (100% kill) | 9 (100% kill)
CN=C(NC)SCn1c(Br)c(Br)c(C#N)c1Br [Example 14] |  |  | 0 | 0 | 5 (56-65% kill) | 0 | 8 (86-99% kill) |  |  | 0 | 0 | 9 (100% kill) | 9 (100% kill) | 9 (100% kill) | 9 (100% kill)
CSCn1c(Br)c(Br)c(C#N)c1-c1ccc(C(F)(F)F)cc1 [Example 44] | 0 |  |  | 0 | 2 (26-35% kill) | 0 | 9 (100% kill) | 0 | 7 (76-85% kill) | 0 | 0 | 9 (100% kill) | 9 (100% kill) | 9 (100% kill) | 9 (100% kill)
CCOC(=S)SCn1c(Cl)c(C#N)c(Cl)c1-c1ccc(Cl)c(Cl)c1 [Example 37] | 0 |  | 6 (66-75% kill) | 9 (100% kill) | 9 (100% kill) | 9 (100% kill) | 9 (100% kill) |  |  | 9 (100% kill) | 9 (100% kill) | 9 (100% kill) | 9 (100% kill) | 9 (100% kill) | 9 (100% kill)
CC(C)OC(=S)SCn1c(-c2ccc(Cl)cc2)c(C#N)c(Br)c1C(F)(F)F [Example 30] |  |  |  | 9 (100% kill) | 9 (100% kill) |  |  |  |  | 9 (100% kill) | 9 (100% kill) | 9 (100% kill) | 9 (100% kill) | 9 (100% kill) | 9 (100% kill)
CSCn1c(-c2ccc(Cl)cc2)c(C#N)c(Br)c1C(F)(F)F [Example 25] |  |  |  | 9 (100% kill) | 9 (100% kill) |  |  | 0 | 9 (100% kill) | 0 | 0 | 9 (100% kill) | 9 (100% kill) | 9 (100% kill) | 9 (100% kill)
